Where two headings read alike, the source gives them in different places.
What was measured:
Assay type in all cases: cell-based
mTOR = molecular target: T1, mTOR (Homo sapiens, UniProt P42345); test: Assay d): mTOR cellular potency (phospho-AKT Ser473 in MDA-MB-468 cells)
T1 construct: phosphorylation of the Akt protein at Ser473 (AKT lies downstream of PI3Kα in the signal transduction pathway) in the MDA-MB-468 cells; endogenous in cells; host or cells: MDA-MB-468 cells (ATCC HTB 132)
Experimental: This assay was used to measure mTOR inhibition in cells. The aim of the phospho-AKT cell based mechanism of action assay using the Acumen Explorer is to identify inhibitors of either PI3Kα or mTOR-Rictor (Rapamycin insensitive companion of mTOR). This is measured by any decrease in the phosphorylation of the Akt protein at Ser473 (AKT lies downstream of PI3Kα in the signal transduction pathway) in the MDA-MB-468 cells following treatment with compound.
MDA-MB-468 cells (human breast adenocarcinoma #ATCC HTB 132) were seeded at 1500 cells/well in 40 μl of DMEM containing 10% FBS and 1% glutamine into Greiner 384 well black flat-bottomed plates. Cell plates were incubated for 18 h in a 37° C. incubator before dosing with compounds of Formula (I) in 100% DMSO using acoustic dispensing. Compounds were dosed in a 12 point concentration range into a randomised plate map. Control wells were generated either by dosing of 100% DMSO (max signal) or addition of a reference compound (a PI3K-βinhibitor) that completely eliminated the pAKT signal (min control). Plates were incubated at 37° C. for 2 h; cells were then fixed by the addition of 10 μl of a 3.7% formaldehyde solution. After 30 minutes the plates were washed with PBS using a Tecan PW384 plate washer. Wells were blocked and cells permeabilised with the addition of 40 μl of PBS containing 0.5% Tween20 and 1% Marvel™ (dried milk powder) and incubated for 60 minutes at r.t. The plates were washed with PBS containing 0.5% (v/v) Tween20 and 20 μl rabbit anti-phospho AKT Ser473 (Cell Signalling Technologies, #3787) in same PBS-Tween+1% Marvel™ was added and incubated overnight at 4° C.
Plates were washed 3 times with PBS+0.05% Tween 20 using a Tecan PW384. 20 μl of secondary antibody Alexa Fluor 488 anti-Rabbit (Molecular Probes, #A11008) diluted in PBS+0.05% Tween20 containing 1% Marvel™ was added to each well and incubated for 1 h at r.t. Plates were washed three times as before then 20 μl PBS added to each well and plates sealed with a black plate sealer.
The plates were read on an Acumen plate reader as soon as possible, measuring green fluorescence after excitation with 488 nm laser. Using this system IC50 values were generated and quality of plates was determined by control wells. Reference compounds were run each time to monitor assay performance.

ATR kinase = molecular target: T2, ATR kinase (Homo sapiens, UniProt Q13535); test: Assay b): ATR cellular potency (pChk1 Ser345 in HT29 cells after 4NQO)
T2 construct: endogenous in cells; host or cells: HT29 cells (ECACC #85061109)
Summary of the method: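 HT29 cells were preincubated with compound for 1 h at 37 °C, 5% CO2, then stimulated with 4NQO for a further 1 h; wells without 4NQO served as the null control. Cells permeabilised with 0.1% Triton X-100. Chk1 Ser345 phosphorylation imaged on ArrayScan VTI at 10× objective.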

PI3K-α = PI3K-α (Homo sapiens, UniProt P42336); test: Assay c): PI3K cellular potency (phospho-Akt T308 ELISA in BT474 cells); details: for Assay c) PI3Ka Cell IC50: BT474 cells, phospho-Akt T308, 2 h, Table 3 comparative data; for IC50: BT474 cells, phospho-Akt T308, 2 h; Table 2; read-out: Assay c) PI3Kα Cell IC50
Source text: This assay was used to measure PI3K-α inhibition in cells. PDK1 was identified as the upstream activation loop kinase of protein kinase B (Akt1), which is essential for the activation of PKB. Activation of the lipid kinase phosphoinositide 3 kinase (PI3K) is critical for the activation of PKB by PDK1.
Following ligand stimulation of receptor tyrosine kinases, PI3K is activated, which converts PIP2 to PIP3, which is bound by the PH domain of PDK1 resulting in recruitment of PDK1 to the plasma membrane where it phosphorylates AKT at Thr308 in the activation loop.
The aim of this cell-based mode of action assay is to identify compounds that inhibit PDK activity or recruitment of PDK1 to membrane by inhibiting PI3K activity. Phosphorylation of phospho-Akt (T308) in BT474c cells following treatment with compounds for 2 h is a direct measure of PDK1 and indirect measure of PI3K activity.
BT474 cells (human breast ductal carcinoma, ATCC HTB-20) were seeded into black 384 well plates (Costar, #3712) at a density of 5600 cells/well in DMEM containing 10% FBS and 1% glutamine and allowed to adhere overnight.
The following morning compounds in 100% DMSO were added to assay plates by acoustic dispensing. After a 2 h incubation at 37° C. and 5% CO2, the medium was aspirated and the cells were lysed with a buffer containing 25 mM Tris, 3 mM EDTA, 3 mM EGTA, 50 mM sodium fluoride, 2 mM Sodium orthovanadate, 0.27M sucrose, 10 mM β-glycerophosphate, 5 mM sodium pyrophosphate, 0.5% Triton X-100 and complete protease inhibitor cocktail tablets (Roche #04 693 116 001, used 1 tab per 50 ml lysis buffer).
After 20 minutes, the cell lysates were transferred into ELISA plates (Greiner #781077) which had been pre-coated with an anti total-AKT antibody in PBS buffer and non-specific binding was blocked with 1% BSA in PBS containing 0.05% Tween 20. Plates were incubated over night at 4° C. The next day the plates were washed with PBS buffer containing 0.05% Tween 20 and further incubated with a mouse monoclonal anti-phospho AKT T308 for 2 h. Plates were washed again as above before addition of a horse anti-mouse-HRP conjugated secondary antibody. Following a 2 h incubation at r.t., plates were washed and QuantaBlu substrate working solution (Thermo Scientific #15169, prepared according to provider's instructions) was added to each well. The developed fluorescent product was stopped after 60 minutes by addition of Stop solution to the wells. Plates were read using a Tecan Safire plate reader using 325 nm excitation and 420 nm emission wavelengths respectively. Except where specified, reagents contained in the Path Scan Phospho AKT (Thr308) sandwich ELISA kit from Cell Signalling (#7144) were used in this ELISA assay.

ATM kinase = molecular target: T3, ATM kinase (Homo sapiens, UniProt Q13315); test: Assay a): ATM cellular potency (pATM Ser1981 in irradiated HT29 cells)
T3 construct: endogenous in cells; host or cells: HT29 cells (ECACC #85061109)
Summary of the method: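 HT29 cells pretreated with compound for 1 h at 37° C, X-ray irradiated (~600 cGy), then incubated 1 h more. Cells fixed, Triton-permeabilised and immunostained for pATM Ser1981; fluorescence quantified by ArrayScan high-content imaging.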

[1] = MDA-MB-468 cells, phospho-AKT Ser473, 2 h; Table 3 comparative data; read-out: Assay d) mTOR Cell IC50
[2] = HT29 cells, 4NQO, pChk1 Ser345; Table 3 comparative data; read-out: Assay b) ATR Cell IC50
[3] = HT29 cells, X-ray irradiation, pATM Ser1981; Table 3 comparative data; read-out: Assay a) ATM Cell IC50
[4] = HT29 cells, X-ray irradiation, pATM Ser1981; Table 2; read-out: Assay a) ATM Cell IC50
[5] = HT29 cells, 4NQO, pChk1 Ser345; Table 2; read-out: Assay b) ATR Cell IC50
[6] = MDA-MB-468 cells, phospho-AKT Ser473, 2 h; Table 2; read-out: Assay d) mTOR Cell IC50

T3 sequence (Q13315 whole entry): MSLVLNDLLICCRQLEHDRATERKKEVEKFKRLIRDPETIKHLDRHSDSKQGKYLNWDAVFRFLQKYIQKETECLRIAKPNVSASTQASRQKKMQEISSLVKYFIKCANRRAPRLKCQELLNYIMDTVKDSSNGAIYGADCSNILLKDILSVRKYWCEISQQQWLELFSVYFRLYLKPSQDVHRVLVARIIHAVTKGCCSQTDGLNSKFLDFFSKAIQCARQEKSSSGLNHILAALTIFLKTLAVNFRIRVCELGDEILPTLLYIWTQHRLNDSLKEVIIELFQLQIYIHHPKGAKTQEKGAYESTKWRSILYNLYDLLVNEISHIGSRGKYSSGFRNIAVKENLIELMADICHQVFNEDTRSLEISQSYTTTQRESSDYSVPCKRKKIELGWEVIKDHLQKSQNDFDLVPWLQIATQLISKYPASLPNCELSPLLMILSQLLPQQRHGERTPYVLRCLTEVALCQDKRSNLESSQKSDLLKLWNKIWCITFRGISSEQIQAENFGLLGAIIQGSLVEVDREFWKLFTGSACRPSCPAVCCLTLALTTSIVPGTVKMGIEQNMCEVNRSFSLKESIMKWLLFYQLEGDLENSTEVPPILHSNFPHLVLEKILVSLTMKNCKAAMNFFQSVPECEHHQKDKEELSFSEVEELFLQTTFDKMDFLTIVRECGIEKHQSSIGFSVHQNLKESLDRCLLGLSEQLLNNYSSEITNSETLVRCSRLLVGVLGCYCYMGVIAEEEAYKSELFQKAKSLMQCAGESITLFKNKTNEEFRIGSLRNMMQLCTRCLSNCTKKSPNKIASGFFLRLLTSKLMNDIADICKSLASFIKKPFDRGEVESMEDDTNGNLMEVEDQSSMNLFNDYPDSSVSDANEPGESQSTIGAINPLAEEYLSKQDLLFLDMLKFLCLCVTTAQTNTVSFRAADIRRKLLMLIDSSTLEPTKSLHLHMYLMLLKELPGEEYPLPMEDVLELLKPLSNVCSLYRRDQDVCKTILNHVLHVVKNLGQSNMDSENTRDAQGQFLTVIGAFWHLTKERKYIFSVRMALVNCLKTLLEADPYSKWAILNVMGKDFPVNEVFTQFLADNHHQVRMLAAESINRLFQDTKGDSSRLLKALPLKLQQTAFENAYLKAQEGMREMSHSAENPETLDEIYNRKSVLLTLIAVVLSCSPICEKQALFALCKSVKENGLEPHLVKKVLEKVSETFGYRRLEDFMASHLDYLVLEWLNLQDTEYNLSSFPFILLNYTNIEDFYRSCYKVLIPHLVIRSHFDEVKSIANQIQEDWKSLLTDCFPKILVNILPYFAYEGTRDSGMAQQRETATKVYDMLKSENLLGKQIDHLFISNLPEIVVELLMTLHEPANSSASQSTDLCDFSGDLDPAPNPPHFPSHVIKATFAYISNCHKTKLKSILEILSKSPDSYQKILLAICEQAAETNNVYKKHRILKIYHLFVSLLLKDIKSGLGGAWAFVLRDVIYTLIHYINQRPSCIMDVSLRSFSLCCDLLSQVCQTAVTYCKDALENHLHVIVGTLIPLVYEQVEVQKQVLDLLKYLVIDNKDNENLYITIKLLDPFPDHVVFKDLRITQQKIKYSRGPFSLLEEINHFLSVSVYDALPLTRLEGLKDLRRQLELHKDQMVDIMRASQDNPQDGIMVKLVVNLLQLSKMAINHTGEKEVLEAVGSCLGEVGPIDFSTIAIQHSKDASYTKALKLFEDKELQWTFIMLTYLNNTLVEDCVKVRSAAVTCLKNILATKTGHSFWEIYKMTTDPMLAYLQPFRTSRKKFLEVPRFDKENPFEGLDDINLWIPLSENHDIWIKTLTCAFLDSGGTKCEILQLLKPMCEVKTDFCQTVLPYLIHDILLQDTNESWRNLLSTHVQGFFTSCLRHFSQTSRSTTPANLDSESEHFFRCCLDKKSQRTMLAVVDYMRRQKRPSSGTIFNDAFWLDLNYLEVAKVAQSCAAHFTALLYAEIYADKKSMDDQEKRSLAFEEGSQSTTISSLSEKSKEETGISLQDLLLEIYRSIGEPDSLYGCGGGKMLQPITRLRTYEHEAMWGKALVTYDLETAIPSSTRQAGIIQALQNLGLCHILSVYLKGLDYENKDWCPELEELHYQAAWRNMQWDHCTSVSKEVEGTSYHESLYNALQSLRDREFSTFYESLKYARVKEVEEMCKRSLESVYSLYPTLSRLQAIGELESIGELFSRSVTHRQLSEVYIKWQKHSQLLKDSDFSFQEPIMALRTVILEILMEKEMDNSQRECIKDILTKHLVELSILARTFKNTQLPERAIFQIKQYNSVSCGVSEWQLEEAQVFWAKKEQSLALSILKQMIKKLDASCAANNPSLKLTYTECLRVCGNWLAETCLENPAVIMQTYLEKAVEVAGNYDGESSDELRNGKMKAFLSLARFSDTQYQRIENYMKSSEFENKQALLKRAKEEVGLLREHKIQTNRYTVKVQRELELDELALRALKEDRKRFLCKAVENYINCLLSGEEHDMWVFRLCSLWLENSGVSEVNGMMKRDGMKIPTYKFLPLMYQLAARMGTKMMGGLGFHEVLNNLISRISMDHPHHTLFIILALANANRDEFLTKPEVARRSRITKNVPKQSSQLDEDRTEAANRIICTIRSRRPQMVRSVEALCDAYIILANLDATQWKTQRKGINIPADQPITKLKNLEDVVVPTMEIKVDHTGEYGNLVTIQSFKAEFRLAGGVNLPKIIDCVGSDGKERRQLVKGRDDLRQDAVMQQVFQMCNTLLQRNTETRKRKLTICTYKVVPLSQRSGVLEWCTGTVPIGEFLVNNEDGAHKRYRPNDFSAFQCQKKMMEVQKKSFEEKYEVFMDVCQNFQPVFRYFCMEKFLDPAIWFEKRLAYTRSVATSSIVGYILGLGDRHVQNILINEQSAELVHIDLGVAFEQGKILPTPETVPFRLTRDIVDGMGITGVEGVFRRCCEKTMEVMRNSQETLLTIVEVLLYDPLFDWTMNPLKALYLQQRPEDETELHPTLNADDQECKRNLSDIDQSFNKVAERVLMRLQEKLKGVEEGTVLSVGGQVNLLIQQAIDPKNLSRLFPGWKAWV
PI3K-α, sequence (P42336 whole entry): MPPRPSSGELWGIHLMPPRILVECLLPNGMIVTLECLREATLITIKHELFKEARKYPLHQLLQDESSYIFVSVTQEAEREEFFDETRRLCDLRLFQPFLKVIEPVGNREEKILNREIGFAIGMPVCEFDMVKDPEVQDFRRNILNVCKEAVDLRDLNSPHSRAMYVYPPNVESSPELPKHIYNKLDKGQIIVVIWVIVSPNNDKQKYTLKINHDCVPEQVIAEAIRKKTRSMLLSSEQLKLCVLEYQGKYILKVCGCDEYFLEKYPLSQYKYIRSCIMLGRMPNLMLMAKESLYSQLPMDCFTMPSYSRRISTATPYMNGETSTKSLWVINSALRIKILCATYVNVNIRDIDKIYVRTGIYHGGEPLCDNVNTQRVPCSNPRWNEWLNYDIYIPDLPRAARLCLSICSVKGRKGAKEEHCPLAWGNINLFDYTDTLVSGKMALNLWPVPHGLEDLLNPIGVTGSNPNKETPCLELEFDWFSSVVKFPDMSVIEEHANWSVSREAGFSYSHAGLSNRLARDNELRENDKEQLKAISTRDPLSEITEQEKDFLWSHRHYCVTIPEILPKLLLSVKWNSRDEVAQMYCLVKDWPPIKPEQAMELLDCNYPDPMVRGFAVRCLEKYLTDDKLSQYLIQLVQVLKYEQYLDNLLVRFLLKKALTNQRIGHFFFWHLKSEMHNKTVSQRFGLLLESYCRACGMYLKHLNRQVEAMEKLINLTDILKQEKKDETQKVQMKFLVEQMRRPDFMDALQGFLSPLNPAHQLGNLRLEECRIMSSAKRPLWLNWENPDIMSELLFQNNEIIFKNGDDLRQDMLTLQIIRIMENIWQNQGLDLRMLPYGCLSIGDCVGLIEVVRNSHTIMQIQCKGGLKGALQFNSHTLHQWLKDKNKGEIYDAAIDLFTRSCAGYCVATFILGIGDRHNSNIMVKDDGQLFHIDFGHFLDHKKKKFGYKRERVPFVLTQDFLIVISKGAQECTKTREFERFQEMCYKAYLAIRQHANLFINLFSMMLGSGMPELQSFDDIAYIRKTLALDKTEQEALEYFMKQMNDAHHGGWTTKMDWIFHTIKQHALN
PI3K-α, sequence (P27986 2-724, further chain): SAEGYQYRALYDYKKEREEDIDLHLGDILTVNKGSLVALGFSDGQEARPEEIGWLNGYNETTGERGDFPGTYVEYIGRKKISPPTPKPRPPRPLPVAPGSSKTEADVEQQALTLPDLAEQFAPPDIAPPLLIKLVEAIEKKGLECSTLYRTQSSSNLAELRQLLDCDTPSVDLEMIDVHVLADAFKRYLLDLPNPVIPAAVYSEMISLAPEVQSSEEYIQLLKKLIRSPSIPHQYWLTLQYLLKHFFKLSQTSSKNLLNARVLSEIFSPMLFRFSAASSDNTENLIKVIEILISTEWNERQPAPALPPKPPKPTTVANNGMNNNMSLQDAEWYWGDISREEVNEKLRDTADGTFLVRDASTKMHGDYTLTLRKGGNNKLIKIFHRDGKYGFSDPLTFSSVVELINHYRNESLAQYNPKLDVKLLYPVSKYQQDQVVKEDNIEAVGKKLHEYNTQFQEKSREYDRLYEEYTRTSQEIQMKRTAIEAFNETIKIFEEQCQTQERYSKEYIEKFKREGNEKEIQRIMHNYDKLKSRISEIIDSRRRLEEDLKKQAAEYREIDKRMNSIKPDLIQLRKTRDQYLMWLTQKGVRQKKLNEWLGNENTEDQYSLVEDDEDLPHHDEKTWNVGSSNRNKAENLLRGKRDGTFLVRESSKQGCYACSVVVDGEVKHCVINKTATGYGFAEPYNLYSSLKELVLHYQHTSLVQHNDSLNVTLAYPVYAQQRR

IC50 (ATM kinase; [4]) [nM]	IC50 (ATR kinase; [5]) [nM]	IC50 (PI3K-α) [nM]	IC50 (mTOR; [6]) [nM]	SMILES	IC50 (mTOR; [1]) [nM]	IC50 (ATR kinase; [2]) [nM]	Assay c) PI3Ka Cell IC50 (PI3K-α) [nM]	IC50 (ATM kinase; [3]) [nM]
				COc1ccc(-c2ccc3ncc4c(c3c2)n(C2CCNCC2)c(=O)n4C)cn1 [CN102372711A Compound 1, reference compound]	237	281	188	
				COc1ccc(-c2ccc3ncc4c(c3c2)n(C2CCN(C(C)=O)CC2)c(=O)n4C)cn1 [CN102372711A Compound 5, reference compound]	113	64.4	153	26.5
				Cn1c(=O)n(C2CNC2)c2c3cc(-c4cnc5[nH]ccc5c4)ccc3ncc21 [CN102399218A Compound 61, reference compound]	177	1480	1730	3460
				Cn1c(=O)n(C2CC2)c2c3cc(-c4cnc5[nH]ccc5c4)ccc3ncc21 [CN102399218A Compound 62, reference compound]	15.5	56.3	149	80
				Cn1c(=O)n(C2CC2)c2c3cc(-c4cnc(N)nc4)ccc3ncc21 [CN102399218A Compound 64, reference compound]	287	162	247	216
				Cn1c(=O)n(C2CCOCC2)c2c3cc(-c4cnc(N)nc4)ccc3ncc21 [CN102399218A Compound 94, reference compound]	41.4	12.9	80.4	494
				COc1ncc(-c2ccc3ncc4c(c3c2)n(C2CC2)c(=O)n4C)cc1NS(=O)(=O)C1CC1 [CN102399218A Compound 114, reference compound]	46.9	68.6	13.1	74.1
14.8	> 30000	> 26900		CC(C)n1c(=O)n(C)c2cnc3ccc(-c4ccc(OCCN(C)C)cc4)cc3c21 [Example 5, 8-[4-[2-(Dimethylamino)ethoxy]phenyl]-1-isopropyl-3-methyl-imidazo[4,5-c]quinolin-2-one]				
	> 30000	311	1420	CN(C)CCCOc1ccc(-c2ccc3ncc4c(c3c2)n([C@@H]2CCCOC2)c(=O)n4C)cc1 [Example 8, 8-[4-[3-(dimethylamino)propoxy]phenyl]-3-methyl-1-[(3R)-tetrahydropyran-3-yl]imidazo[4,5-c]quinolin-2-one]				
	> 30000	15200		CN(C)CCCOc1ccc(-c2ccc3ncc4c(c3c2)n([C@H]2CCCOC2)c(=O)n4C)cc1 [Example 9, 8-[4-[3-(dimethylamino)propoxy]phenyl]-3-methyl-1-[(3S)-tetrahydropyran-3-yl]imidazo[4,5-c]quinolin-2-one]				
1.88	> 30000	20400	5560	CO[C@H]1C[C@@H](n2c(=O)n(C)c3cnc4cc(F)c(-c5ccc(OCCCN(C)C)cc5)cc4c32)C1 [Example 12, 8-[4-[3-(dimethylamino)propoxy]phenyl]-7-fluoro-1-(cis3-methoxycyclobutyl)-3-methyl-imidazo[4,5-c]quinolin-2-one]				
14.4	> 30000	> 30000	5530	CN(C)CCOc1ccc(-c2ccc3ncc4c(c3c2)n([C@H]2CCCOC2)c(=O)n4C)cc1 [Example 47, 8-[4-[2-(Dimethylamino)ethoxy]phenyl]-3-methyl-1-[(3S)-tetrahydropyran-3-yl]imidazo[4,5-c]quinolin-2-one]				
